# Measurements from patent publication US9131690B2, “Macrocyclic picolinamides as fungicides” (Dow AgroSciences LLC, priority 2012, dated 2015).
# Read-outs that look alike come from different tables or passages of the source.
# Legend:
# [1] = test system: Mycosphaerella graminicola; Anamorph: Septoria tritici; assay: Fungicidal activity: Leaf Blotch of Wheat (SEPTTR), wheat plants variety Yuma; assay type: in vivo; set-up: key to SEPTTR 3DC Disease Control: A: 50-100; B: More than 0-Less than 50; C: Not Tested; D: No activity noticed in this bioassay; details: for pest or weed control at 100 ppm: Zymoseptoria tritici
# Procedure: Evaluation of Fungicidal Activity: Leaf Blotch of Wheat (Mycosphaerella graminicola; Anamorph: Septoria tritici; Bayer Code […]) Wheat plants (variety Yuma) were grown from seed in a greenhouse in 50% mineral soil/50% soil-less Metro mix until the first leaf was fully emerged, with 7-10 seedlings per pot. These plants were inoculated with an aqueous spore suspension of Septoria tritici either prior to or after fungicide treatments. After inoculation the plants were kept in 100% relative humidity (one day in a dark dew chamber followed by two to three days in a lighted dew chamber) to permit spores to germinate and infect the leaf. The plants were then transferred to a greenhouse at 20° C. for disease to develop.
# [2] = test system: Puccinia triticina. Synonym: Puccinia recondite f. sp. tritici; assay: Fungicidal activity: Wheat Brown Rust (PUCCRT), wheat plants variety Yuma; assay type: in vivo; set-up: key to PUCCRT 3DC Disease Control: A: 50-100; B: More than 0-Less than 50; C: Not Tested; D: No activity noticed in this bioassay; details: for pest or weed control at 100 ppm: Puccinia triticina; for PUCCRT 3DC Disease Control: 100 ppm
# Procedure: Evaluation of Fungicidal Activity: Wheat Brown Rust (Puccinia triticina. Synonym: Puccinia recondite f. sp. tritici; Bayer Code PUCCRT) Wheat plants (variety Yuma) were grown from seed in a greenhouse in 50% mineral soil/50% soil-less Metro mix until the first leaf was fully emerged, with 7-10 seedlings per pot. These plants were inoculated with an aqueous spore suspension of Puccinia recondite f. sp. tritici either prior to or after fungicide treatments. After inoculation the plants were kept in 100% relative humidity overnight to permit spores to germinate and infect the leaf. The plants were then transferred to a greenhouse set at 24 C for disease to develop.
# [3] = 24 h, 1 Day Protectant, read-out: SEPTTR 1DP Disease Control
# [4] = 72 h, 3 Day Curative, read-out: SEPTTR 3DC Disease Control
# [5] = 24 h, 1 Day Protectant, read-out: PUCCRT 1DP Disease Control
# [6] = 72 h, 3 Day Curative, read-out: PUCCRT 3DC Disease Control
SMILES,melting point [°C],"pest or weed control at 100 ppm [1, 3] [%]","pest or weed control at 100 ppm [1, 4] [%]","pest or weed control at 100 ppm [2, 5] [%]","pest or weed control at 100 ppm [2, 6] [%]",PUCCRT 3DC Disease Control ([2]; 3 Day Curative),"SEPTTR 3DC Disease Control ([1]; 100 ppm, 3 Day Curative)"
COc1ccnc(C(=O)N[C@H]2COC(=O)[C@H](Cc3ccncc3)[C@@H](OC(=O)C(C)C)[C@H](C)OC2=O)c1O [Compound 5],151 to 156,50 to 100,50 to 100,50 to 100,50 to 100,–,–
COc1ccnc(C(=O)N[C@H]2COC(=O)[C@H](Cc3ccc(C(F)(F)F)cc3)[C@@H](OC(=O)C(C)C)[C@H](C)OC2=O)c1O [Compound 6],222 to 226,50 to 100,0 to 50,50 to 100,–,D,–
COc1ccnc(C(=O)N[C@H]2COC(=O)[C@H](Cc3ccc(Cl)nc3)[C@@H](OC(=O)C(C)C)[C@H](C)OC2=O)c1O [Compound 7],148 to 152,0 to 50,0 to 50,50 to 100,50 to 100,–,–
COc1ccnc(C(=O)N[C@H]2COC(=O)[C@H](Cc3ccc(Cl)cc3)[C@@H](OC(=O)C(C)C)[C@H](C)OC2=O)c1O [Compound 9],192 to 194,50 to 100,0 to 50,50 to 100,50 to 100,–,–
COc1ccnc(C(=O)N[C@H]2COC(=O)[C@H](Cc3ccc(F)cc3F)[C@@H](OC(=O)C(C)C)[C@H](C)OC2=O)c1O [Compound 10],184 to 185,50 to 100,0 to 50,50 to 100,50 to 100,–,–
COc1ccnc(C(=O)N[C@H]2COC(=O)[C@H](CI)[C@@H](OC(=O)C(C)C)[C@H](C)OC2=O)c1O [Compound 11],186 to 191,50 to 100,0 to 50,50 to 100,50 to 100,–,–
COc1ccnc(C(=O)N[C@H]2COC(=O)[C@H](Cc3ccc(-c4ccccc4)cc3)[C@@H](OC(=O)C(C)C)[C@H](C)OC2=O)c1O [Compound 12],214 to 216,50 to 100,0 to 50,50 to 100,0 to 50,–,–
COc1ccnc(C(=O)N[C@H]2COC(=O)[C@H](Cc3cccc(-c4ccccc4)c3)[C@@H](OC(=O)C(C)C)[C@H](C)OC2=O)c1O [Compound 13],182 to 186,50 to 100,0 to 50,50 to 100,0 to 50,–,–
COc1ccnc(C(=O)N[C@H]2COC(=O)[C@H](Cc3cncnc3)[C@@H](OC(=O)C(C)C)[C@H](C)OC2=O)c1O [Compound 14],169 to 175,0 to 50,0 to 50,50 to 100,50 to 100,–,–
COc1ccnc(C(=O)N[C@H]2COC(=O)[C@H](Cc3cccc4ccccc34)[C@@H](OC(=O)C(C)C)[C@H](C)OC2=O)c1O [Compound 15],192 to 197,50 to 100,0 to 50,50 to 100,0 to 50,–,–
COc1ccnc(C(=O)N[C@H]2COC(=O)[C@H](Cc3cccc(C(F)(F)F)c3)[C@@H](OC(=O)C(C)C)[C@H](C)OC2=O)c1O [Compound 16],188 to 190,50 to 100,0 to 50,50 to 100,0 to 50,–,–
C=CC[C@H]1C(=O)OC[C@H](NC(=O)c2nccc(OC)c2O)C(=O)O[C@@H](C)[C@@H]1OC(=O)C(C)C [Compound 17],161 to 165,50 to 100,0 to 50,50 to 100,50 to 100,–,–
CCCC/C=C/C[C@H]1C(=O)OC[C@H](NC(=O)c2nccc(OC)c2O)C(=O)O[C@@H](C)[C@@H]1OC(=O)C(C)C [Compound 18],146 to 148,50 to 100,0 to 50,50 to 100,–,D,–
COc1ccnc(C(=O)N[C@H]2COC(=O)[C@H](CC3CCCCC3)[C@@H](OC(=O)C(C)C)[C@H](C)OC2=O)c1OCOC(=O)C(C)C [Compound 27],117 to 119,0 to 50,0 to 50,0 to 50,0 to 50,–,–

# More lines, main results first:
melting point [°C],SMILES,"pest or weed control at 100 ppm [1, 3] [%]","pest or weed control at 100 ppm [1, 4] [%]","pest or weed control at 100 ppm [2, 5] [%]","pest or weed control at 100 ppm [2, 6] [%]",PUCCRT 3DC Disease Control ([2]; 3 Day Curative),"SEPTTR 3DC Disease Control ([1]; 100 ppm, 3 Day Curative)"
48 to 50,"COc1ccnc(C(=O)N[C@H]2COC(=O)[C@H](CCOC(=O)c3ccccc3)[C@@H](OC(=O)C(C)C)[C@H](C)OC2=O)c1OCOC(=O)C(C)C [Compound 19, 2-((3S,7R,8R,9S)-8-(isobutyryloxy)-3-(3-(isobutyryloxymethoxy)-4-methoxypicolinamido)-9-methyl-2,6-dioxo-1,5-dioxonan-7-yl)ethyl benzoate]",50 to 100,0 to 50,50 to 100,50 to 100,–,–
131 to 133,COc1ccnc(C(=O)N[C@H]2COC(=O)[C@H](Cc3ccc(C)cc3)[C@@H](OC(=O)C(C)C)[C@H](C)OC2=O)c1OCOC(=O)C(C)C [Compound 22],0 to 50,0 to 50,50 to 100,50 to 100,–,–
171 to 174,COc1ccnc(C(=O)N[C@H]2COC(=O)[C@H](Cc3cccnc3)[C@@H](OC(=O)C(C)C)[C@H](C)OC2=O)c1OCOC(=O)C(C)C [Compound 23],0 to 50,0 to 50,50 to 100,50 to 100,–,–
100 to 103,COc1ccnc(C(=O)N[C@H]2COC(=O)[C@H](Cc3cccc(C(F)(F)F)c3)[C@@H](OC(=O)C(C)C)[C@H](C)OC2=O)c1OCOC(=O)C(C)C [Compound 24],50 to 100,0 to 50,50 to 100,50 to 100,–,–
55 to 68,COc1ccnc(C(=O)N[C@H]2COC(=O)[C@H](Cc3cccc(-c4ccccc4)c3)[C@@H](OC(=O)C(C)C)[C@H](C)OC2=O)c1OCOC(=O)C(C)C [Compound 25],50 to 100,0 to 50,50 to 100,50 to 100,–,–
68 to 69,COc1ccnc(C(=O)N[C@H]2COC(=O)[C@H](CCOC(=O)C3CC3)[C@@H](OC(=O)C(C)C)[C@H](C)OC2=O)c1OCOC(=O)C(C)C [Compound 26],0 to 50,0 to 50,50 to 100,50 to 100,–,–
172 to 174,"COc1ccnc(C(=O)N[C@H]2COC(=O)[C@H](CCOC(=O)c3ccccc3)[C@@H](OC(=O)C(C)C)[C@H](C)OC2=O)c1O [Compound 35, 2-((3S,7R,8R,9S)-3-(3-hydroxy-4-methoxypicolinamido)-8-(isobutyryloxy)-9-methyl-2,6-dioxo-1,5-dioxonan-7-yl)ethyl benzoate]",50 to 100,–,50 to 100,–,D,D
